Measurements as given in patent publication US10548940B2, “Pharmaceutical composition for controlling blood lipids and body weight, and use thereof” (BEIJING HEBABIZ MANAGEMENT CO., LTD, priority 2014, dated 2020).

Key:
hyperlipidemia rats [1] = assay: Effect of drugs on reducing blood lipid and body weight in high fat diet rats (Examples 5); assay type: in vivo, Wistar rats
Description: Take the medicine ZL004, ZL005 and ZL006, 0.5% CMC-Na (carboxymethyl cellulose sodium) solution (25 mg/ml or 50 mg/ml); take atorvastatin as positive control drug (0.5% CMC-Na solution, 0.5 mg/ml), for the following experiment.
120 Wistar rats (male weight; 150 g; feeding environment: SPF grade animal room, free feeding, 12 h light/12 h dark) after adaptive breeding for one week, were randomly divided into normal control group (10 rats) and high-fat diet group (110 rats), and each rat was then numbered. The normal control group were fed with normal diet, high fat diet group were fed with high fat diet (78.8% basal diet (purchased from Beijing, Australia to feed Co. Ltd.) +1% cholesterol, +10% egg yolk powder, +10% lard, +0.2% sodium cholate), 30 days later, after determination, the hyperlipemia rats of high fat diet group were randomly divided into 10 groups (high fat model group, atorvastatin group (atorvastatin 5 mg/kg daily administration), ZL004 high dose group (daily administration of ZL004 500 mg/kg), ZL004 low dose group (daily administration of ZL004 […]), ZL005 high dose group (daily administration of ZL005 500 mg/kg), ZL005 low dose group (daily administration of ZL005 […]), ZL006 high dose group (daily administration of ZL006 500 mg/kg), ZL006 low dose group (daily administration of ZL006 […]), 10 rats in each group. The normal control group and high fat model group daily orally administered 0.5% CMC-Na solution, drug admonition group were orally administered with corresponding drugs administered continuously for 30 days to determine the levels of total cholesterol (TC), triacylglycerol (TG), high density lipoprotein cholesterol (HDL-C), low density lipoprotein cholesterol (LDL-C) and weight. No safety problems were found in the experiment.

hyperlipidemia rats [2] = assay: Further study on the effect of drugs on lowering blood fat and body weight in high fat diet rats, lower doses (Examples 6); assay type: in vivo, Wistar rats
Description: Take ZL004, ZL051 and ZL006 (0.5% CMC-Na solution, 7.5 mg/ml, 15 mg/ml, or 30 mg/ml), take atorvastatin as positive control drug (0.5% CMC-Na solution, 0.5 mg/ml), for the following experiment.
130 Wistar rats (male weight; 150 g; feeding environment: SPF grade animal room, free feeding, 12 h light/12 h dark) after adaptive breeding for one week, were randomly divided into normal control group (10 rats) and high-fat diet group (120 rats), and each rat was then numbered. The normal control group were fed with normal diet, high fat diet group were fed with high fat diet (78.8% basal diet (purchased from Beijing, Australia to feed Co. Ltd.)+1% cholesterol, +10% egg yolk powder, +10% lard, +0.2% sodium cholate), After 30 days, after determination, the hyperlipemia rats of high fat diet group were randomly divided into 10 groups (high fat model group, atorvastatin group (atorvastatin 5 mg/kg daily administration), ZL004 high dose group (daily administration of ZL004 300 mg/kg), ZL004 middle dose group (daily administration of ZL004 150 mg/kg), ZL004 low dose group (daily administration of ZL004 75 mg/kg), ZL051 high dose group (daily administration of ZL051 300 mg/kg), ZL051 middle dose group (daily administration of ZL051 150 mg/kg), ZL051 low dose group (daily administration of ZL051 75 mg/kg), ZL006 high dose group (daily administration of ZL006 300 mg/kg), ZL006 middle dose group (daily administration of ZL006 150 mg/kg), ZL006 low dose group (daily administration of ZL006 75 mg/kg), 10 rats in each group. The normal control group and high fat model group daily orally administered 0.5% CMC-Na solution, drug admonition group were orally administered with corresponding drugs administered continuously for 30 days to determine the levels of total cholesterol (TC), triacylglycerol (TG), high density lipoprotein cholesterol (HDL-C), low density lipoprotein cholesterol (LDL-C) and weight. No safety problems found in the experiment.

[3] = each dose (250 and 500 mg/kg), atorvastatin 5 mg/kg, oral daily 30 days, versus model group
[4] = high fat diet hyperlipidemia rats, oral daily for 30 days, 5 mg/kg, model group = 100%
[5] = high fat diet hyperlipidemia rats, oral daily for 30 days, 5 mg/kg, x ± s, n = 10
[6] = serum HDL cholesterol, high fat rats, oral daily 30 days, 5 mg/kg, model group = 100%, x ± s, n = 10
[7] = serum LDL cholesterol, high fat rats, oral daily 30 days, 5 mg/kg, model group = 100%, x ± s, n = 10
[8] = serum total cholesterol, high fat rats, oral daily 30 days, 5 mg/kg, model group = 100%, x ± s, n = 10
[9] = serum triacylglycerol, high fat rats, oral daily 30 days, 5 mg/kg, model group = 100%, x ± s, n = 10

Structure (SMILES): CC(C)c1c(C(=O)Nc2ccccc2)c(-c2ccccc2)c(-c2ccc(F)cc2)n1CC[C@@H](O)C[C@@H](O)CC(=O)O [Atorvastatin, atorvastatin]
- effect on the body weight of hyperlipidemia rats (in words) (hyperlipidemia rats [1]; each dose (250 and 500 mg/kg), atorvastatin 5 mg/kg, oral daily 30 days, versus high fat model group): reduced the body weight, close to or even lower than the normal control group
- effect on HDL-C (in words) (hyperlipidemia rats [1]; [3]): significantly increase
- effect on rat serum TC, TG, LDL-C (in words) (hyperlipidemia rats [1]; [3]): significantly reduce
- body weight % (/high fat model group) (hyperlipidemia rats [1]; [4]): 90.77 ± 9.22%
- body weight (hyperlipidemia rats [1]; [5]): 520.1 ± 52.8 g
- HDL-C % (/model group) (hyperlipidemia rats [1]; [6]): 178.57 ± 57.92 %
- LDL-C % (/model group) (hyperlipidemia rats [1]; [7]): 33.13 ± 11.62 %
- TC % (/model group) (hyperlipidemia rats [1]; [8]): 81.77 ± 14.65 %
- TG % (/model group) (hyperlipidemia rats [1]; [9]): 70.50 ± 23.19 %
- effect on the body weight of hyperlipidemia rats (in words) (hyperlipidemia rats [2]; each dose (75, 150, 300 mg/kg), atorvastatin 5 mg/kg, oral daily 30 days, versus high fat model group): reduced the body weight, close to or even lower than the normal control group
- effect on HDL-C (in words) (hyperlipidemia rats [2]; each dose (75, 150, 300 mg/kg), atorvastatin 5 mg/kg, oral daily 30 days, versus model group): significantly increase
- body weight % (/high fat model group) (hyperlipidemia rats [2]; [4]): 90.37 ± 12.13%
- body weight (hyperlipidemia rats [2]; [5]): 465.7 ± 62.5 g
- effect on rat serum TC, TG, LDL-C (in words) (hyperlipidemia rats [2]; middle/high doses (150, 300 mg/kg), atorvastatin 5 mg/kg, oral daily 30 days, versus model group): significantly reduce
- HDL-C % (/model group) (hyperlipidemia rats [2]; [6]): 176.99 ± 37.57 %
- LDL-C % (/model group) (hyperlipidemia rats [2]; [7]): 67.93 ± 29.54 %
- TC % (/model group) (hyperlipidemia rats [2]; [8]): 77.03 ± 23.18 %
- TG % (/model group) (hyperlipidemia rats [2]; [9]): 69.99 ± 17.21 %
